Assay results reported in patent publication US6335337B1, “Substituted piperazinones and their therapeutic uses” (Laboratoire L. Lafon, priority 1998, dated 2002).
Where a name gives a salt, the structure may show the parent alone.

Tests used:
Human Platelets = assay: In vitro inhibition of collagen-induced platelet aggregation, human platelet-rich plasma; format: cell-based; conditions: 0.05 h, human PRP, collagen 5 μg/ml, 3 minutes of contact at 37° C., read-out: IC50(M) in vitro Man
Method: A study of the inhibitory activity of the compounds of formula (I) on platelet aggregation was carried out in vitro, i.e. by direct contact of solutions of variable concentrations of the compounds with platelets freshly separated from a sample of total blood, taken under standardized conditions, from laboratory animals (guinea pigs) and from healthy human subjects who have not received any substances or drugs that might interfere with blood clotting. The anti-platelet-aggregating activity was also studied ex vivo/vitro, i.e. after administration of the substances claimed to guinea pigs to measure the intensity and duration of the anti-aggregating action induced by the fraction of the test product absorbed and circulating in the blood. Venous blood is taken from a group of ten healthy human subjects of the same age, by puncture into a vein of the fold of the elbow and is collected in a glass tube containing aqueous 0.129 M sodium citrate solution (1 volume of citrate solution per 9 volumes of blood). Each tube is then centrifuged a first time at 20° C. and 100 g for 15 minutes in order to obtain the platelet-rich plasma (PRP); after removing this PRP, the tube is again centrifuged at 2000 g for 15 minutes in order this time to remove the platelet-poor plasma (PPP). For each identified sample of PRP, the platelets are counted using a Coulter ZM counter. Each sample is then used to study the variation in inhibition of the platelet aggregation triggered by the addition of a Chromo-par-Reagent collagen glucose solution from Coultronics (used at a concentration of 5 μg/ml) as a function of the addition of increasing concentrations of each compound in a range covering the interval 10^-8 M→10^-5 M, (example of concentrations: 10^-8 […]). Beforehand, for each compound, an aqueous 10^-3 M solution is prepared. A control test intended to check the possible effect of the solvents (reference value) on the platelet aggregation is introduced into each measurement series, and the aggregation is measured after 3 minutes of contact at 37° C. with agitation. From the percentages of inhibition of the platelet aggregation measured for each concentration of each compound, the 50%; inhibitory concentration (IC50) is calculated.

Guinea Pig Platelets = assay: In vitro inhibition of collagen-induced platelet aggregation, guinea pig platelet-rich plasma; format: cell-based; conditions: guinea pig PRP, collagen 1 μg/ml, 3 minutes of contact at 37° C.
Method: A study of the inhibitory activity of the compounds of formula (I) on platelet aggregation was carried out in vitro, i.e. by direct contact of solutions of variable concentrations of the compounds with platelets freshly separated from a sample of total blood, taken under standardized conditions, from laboratory animals (guinea pigs) and from healthy human subjects who have not received any substances or drugs that might interfere with blood clotting. The anti-platelet-aggregating activity was also studied ex vivo/vitro, i.e. after administration of the substances claimed to guinea pigs to measure the intensity and duration of the anti-aggregating action induced by the fraction of the test product absorbed and circulating in the blood.
Blood is taken by intracardiac puncture from male Dunkin-Hartley guinea pigs (weighing about 330 g), at a rate of 4.5 ml per 0.5 ml of trisodium citrate (concentration of the aqueous solution: 1.55%;) in order to prevent all trace of clotting. The platelet-rich plasma (PRP) is obtained by centrifuging the tubes of total blood for 15 minutes at 150 g.
The PRPs are collected as “pools”. The platelets contained in these pools are counted using a Coulter ZM haematology automatic device: if necessary, a dilution is carried out in order for the platelet concentration in the plasma to be between 200000 and 400000 platelets/mm^3. Simultaneously, other samples of these pools serve to prepare the platelet-poor plasma (PPP) by centrifugation at 1500 g for 15 minutes.
The kinetic study of the platelet aggregation is carried out by adding a collagen solution (1 μg/ml) to a volume of PRP, using a Chrono-log Corporation aggregometer (490-D1, or 560 VS) which uses an optical detection of the appearance of the thrombus.
The determination of the 50%; inhibitory concentration (IC50) is carried out by adding a given volume of solvent (control reference) and increasing concentrations: 1.5×10^−8 M, 7×10^−8 M, 1.5×10^−7 M, 3×10^−7 M, 7×10^−7 M, 1.5×10^−6 M and […], of the compounds to samples of the pools of PRP. The measurements of the aggregation inhibition are carried out after 3 minutes of contact at 37° C. with agitation.

[1] = Cavia porcellus, Platelet, 0.05 h

| Compound | IC50 (Human Platelets) [M] | IC50 (Guinea Pig Platelets; [1]) [µM] | IC50 (Guinea Pig Platelets) [µM] |
| --- | --- | --- | --- |
| CCOC(=O)[C@H](CNC(=O)CN1CCN(c2ccc(C(=N)N)cc2)CC1=O)NS(=O)(=O)c1ccc2ccccc2c1 [Example 25, Ethyl (2S)-3-{[2-(4-{4-[amino(imino)methyl]phenyl}-2-oxopiperazino)acetyl]amino}-2-[(2-naphthylsulphonyl)amino]propanoate acetate] | 9.5e-05 | 0.2 | – |
| CCOC(=O)[C@H](CNC(=O)CN1CCN(c2ccc(C(=N)N)cc2)CC1=O)NC(=O)OCC(C)C [Example 26, Ethyl (2S)-3-{[2-(4-{4-[amino(imino)methyl]phenyl}-2-oxopiperazino)acetyl]amino}-2-[(isobutoxycarbonyl)amino]propanoate acetate] | 5.7e-06 | 0.4 | – |
| CCOC(=O)[C@H](CNC(=O)CN1CCN(c2ccc(C(=N)N)cc2)CC1=O)NS(=O)(=O)c1cccc2c1NCCC2 [Example 19, Ethyl (2S)-3-{[2-(4-{4-[amino(imino)methyl]phenyl}-2-oxopiperazino)acetyl]amino}-2-[(1,2,3,4-tetrahydro-8-quinolinylsulphonyl)amino]propanoate acetate] | 8.2e-06 | 0.25 | – |
| N=C(N)c1ccc(N2CCN(CC(=O)NC[C@H](NS(=O)(=O)c3ccccc3)C(=O)O)C(=O)C2)cc1 [Example 30, (2S)-3-{[2-(4-{4-[amino(imino)methyl]phenyl}-2-oxopiperazino)acetyl]amino}-2-[(phenylsulphonyl)amino]propanoic acid hydrochloride] | 1.2e-07 | 0.094 | – |
| CCOC(=O)[C@H](CNC(=O)CN1CCN(c2ccc(C(=N)N)cc2)C(=O)C1)NS(=O)(=O)c1ccccc1 [Example 29, Ethyl (2S)-3-{[2-(4-{4-[amino(imino)methyl]phenyl}-3-oxopiperazino)acetyl]amino}-2-[(phenylsulphonyl)amino]propanoate acetate] | 5.3e-06 | 1.8 | – |
| CCOC(=O)[C@H](CNC(=O)CN1CCN(c2ccc(C(=N)N)cc2)CC1=O)NS(=O)(=O)c1ccccc1 [Example 17, ethyl (2S)-3-{[2-(4-{4-[amino(imino)methyl]phenyl}-2-oxopiperazino)acetyl]amino}-2-[(phenylsulphonyl)amino]propanoate acetate] | 1e-05 | 0.11 | – |
| Cc1ccc(S(=O)(=O)N[C@@H](CNC(=O)CN2CCN(c3ccc(C(=N)N)cc3)CC2=O)C(=O)O)cc1 [Example 31, (2S)-3-{[2-(4-{4-[Amino(imino)methyl]phenyl}-2-oxopiperazino)acetyl]amino}-2-{[4-toluenesulphonyl]amino}propanoic acid hydrochloride] | 3.4e-07 | 0.31 | – |
| CCOC(=O)[C@H](CNC(=O)CN1CCN(c2ccc(C(=N)N)cc2)CC1=O)NS(=O)(=O)c1ccc(Cl)cc1 [Example 24, Ethyl (2S)-3-{[2-(4-{4-[amino(imino)methyl]phenyl}-2-oxopiperazino)acetyl]amino}-2-{[(4-chlorophenyl)sulphonyl]amino}propanoate acetate] | 9.3e-06 | 0.32 | – |
| CCOC(=O)[C@H](CNC(=O)CN1CCN(c2ccc(C(=N)N)cc2)CC1=O)NS(=O)(=O)c1ccc(C)cc1 [Example 23, Ethyl (2S)-3-{[2-(4-{4-[amino(imino)methyl]phenyl}-2-oxopiperazino)acetyl]amino}-2-{[4-toluenesulphonyl]amino}propanoate acetate] | 1.8e-05 | 0.42 | – |
| CCOC(=O)[C@H](CNC(=O)CN1CCN(c2ccc(C(=N)N)cc2)CC1=O)NS(=O)(=O)c1cccnc1 [Example 18, Ethyl (2S)-3-{[2-(4-{4-[amino(imino)methyl]phenyl}-2-oxopiperazino)acetyl]amino}-2-[(3-pyridylsulphonyl)amino]propanoate diacetate] | 3.2e-05 | 0.91 | – |
| CCOC(=O)[C@H](CNC(=O)CN1CCN(c2ccc(C(=N)N3CCCCC3)cc2)CC1=O)NS(=O)(=O)c1ccc(C)cc1 [Example 41, Ethyl (2S)-3-{[2-(4-{4-[imino(piperidino)methyl]phenyl}-2-oxopiperazino)acetyl]amino}-2-{[4-toluenesulphonyl]amino}propanoate] | – | 1.6 | – |
| CCOC(=O)[C@H](CNC(=O)CN1CCN(c2ccc(C(=N)N3CCOCC3)cc2)CC1=O)NS(=O)(=O)c1ccc(C)cc1 [Example 40] | – | – | 1 |
